Converted amounts (≈) assume the structure as drawn.
Columns and labels:
Oculimacula yallundae [1] = assay: Resistance index, ratio of EC50 for sterol 14alpha-demethylation inhibitor-resistant Oculimacula yallundae TriR1 to EC50 for wild type Oculimacula yallundae TriS by germ tube elongation assay; type: functional
Oculimacula yallundae [2] = assay: Fungicidal activity against prochloraz-susceptible Oculimacula yallundae isolate ProS assessed as inhibition of germ tube elongation incubated at 19 degC in dark for 48 hr; type: functional, organism-based
[3] = Selectivity index, ratio of EC50 for Oculimacula acuformis to EC50 for Oculimacula yallundae by germ tube elongation inhibition assay; type: functional
Oculimacula yallundae [4] = assay: Resistance index, ratio of EC50 for sterol 14alpha-demethylation inhibitor-resistant Oculimacula yallundae TriR1 to EC50 for wild type Oculimacula yallundae TriS by mycelial growth inhibition assay; type: functional
Oculimacula yallundae [5] = assay: Resistance index, ratio of EC50 for sterol 14alpha-demethylation inhibitor-resistant Oculimacula yallundae TriR2 to EC50 for wild type Oculimacula yallundae TriS by germ tube elongation assay; type: functional
Oculimacula yallundae [6] = assay: Resistance index, ratio of EC50 for sterol 14alpha-demethylation inhibitor-resistant Oculimacula yallundae TriR2 to EC50 for sterol 14alpha-demethylation inhibitor-resistant Oculimacula yallundae TriR1 by germ tube elongation assay; type: functional
Oculimacula acuformis [7] = assay: Fungicidal activity against Oculimacula acuformis assessed as inhibition of mycelial growth in presence of 10 g glucose incubated at 19 degC in dark for 4 weeks; type: functional, organism-based; details: 672 h
[8] = Selectivity index, ratio of EC50 for Oculimacula acuformis to EC50 for Oculimacula yallundae in presence of 10 g glucose by mycelial growth inhibition assay; type: functional
Oculimacula yallundae [9] = assay: Resistance index, ratio of EC50 for sterol 14alpha-demethylation inhibitor-resistant Oculimacula yallundae MDR to EC50 for wild type Oculimacula yallundae TriS by germ tube elongation assay; type: functional
Oculimacula yallundae [10] = assay: Resistance index, ratio of EC50 for sterol 14alpha-demethylation inhibitor-resistant Oculimacula yallundae MDR to EC50 for sterol 14alpha-demethylation inhibitor-resistant Oculimacula yallundae TriR1 by germ tube elongation assay; type: functional
Oculimacula yallundae [11] = assay: Fungicidal activity against Oculimacula yallundae assessed as inhibition of mycelial growth in presence of 10 g glucose incubated at 19 degC in dark for 4 weeks; type: functional, organism-based; details: 672 h
Oculimacula yallundae [12] = assay: Resistance index, ratio of EC50 for sterol 14alpha-demethylation inhibitor-resistant Oculimacula yallundae TriR2 to EC50 for wild type Oculimacula yallundae TriS by mycelial growth inhibition assay; type: functional
Oculimacula yallundae [13] = assay: Resistance index, ratio of EC50 for sterol 14alpha-demethylation inhibitor-resistant Oculimacula yallundae MDR to EC50 for wild type Oculimacula yallundae TriS by mycelial growth inhibition assay; type: functional
Oculimacula yallundae [14] = assay: Resistance index, ratio of EC50 for prochloraz-resistant Oculimacula yallundae isolate ProR2 to EC50 for prochloraz-susceptible Oculimacula yallundae isolate ProS by mycelial growth inhibition assay; type: functional
Oculimacula yallundae [15] = assay: Fungicidal activity against Oculimacula yallundae assessed as inhibition of germ tube elongation incubated at 19 degC in dark for 48 hr; type: functional, organism-based
Oculimacula yallundae [16] = assay: Resistance index, ratio of EC50 for sterol 14alpha-demethylation inhibitor-resistant Oculimacula yallundae MDR to EC50 for sterol 14alpha-demethylation inhibitor-resistant Oculimacula yallundae TriR1 by mycelial growth inhibition assay; type: functional
Oculimacula yallundae [17] = assay: Resistance index, ratio of EC50 for prochloraz-resistant Oculimacula yallundae isolate ProR2 to EC50 for prochloraz-susceptible Oculimacula yallundae isolate ProS by germ tube elongation inhibition assay; type: functional
Oculimacula yallundae [18] = assay: Fungicidal activity against prochloraz-susceptible Oculimacula yallundae isolate ProS assessed as inhibition of mycelial growth in presence of 10 g glucose incubated at 19 degC in dark for 4 weeks; type: functional, organism-based; details: 672 h
Oculimacula yallundae [19] = assay: Resistance index, ratio of EC50 for sterol 14alpha-demethylation inhibitor-resistant Oculimacula yallundae TriR2 to EC50 for sterol 14alpha-demethylation inhibitor-resistant Oculimacula yallundae TriR1 by mycelial growth inhibition assay; type: functional
Oculimacula yallundae [20] = assay: Resistance index, ratio of EC50 for prochloraz-resistant Oculimacula yallundae isolate ProR1 to EC50 for prochloraz-susceptible Oculimacula yallundae isolate ProS by mycelial growth inhibition assay; type: functional
Oculimacula yallundae [21] = assay: Resistance index, ratio of EC50 for prochloraz-resistant Oculimacula yallundae isolate ProR1 to EC50 for prochloraz-susceptible Oculimacula yallundae isolate ProS by germ tube elongation inhibition assay; type: functional
Oculimacula acuformis [22] = assay: Fungicidal activity against Oculimacula acuformis assessed as inhibition of germ tube elongation incubated at 19 degC in dark for 48 hr; type: functional, organism-based

| SMILES | Ratio EC50 (Oculimacula yallundae [1]) | EC50 (Oculimacula yallundae [2]) [µg/mL] | Ratio EC50 [3] | Ratio EC50 (Oculimacula yallundae [4]) | Ratio EC50 (Oculimacula yallundae [5]) | Ratio EC50 (Oculimacula yallundae [6]) | EC50 (Oculimacula acuformis [7]) [µg/mL] | Ratio EC50 [8] | Ratio EC50 (Oculimacula yallundae [9]) | Ratio EC50 (Oculimacula yallundae [10]) | EC50 (Oculimacula yallundae [11]) [µg/mL] | Ratio EC50 (Oculimacula yallundae [12]) | Ratio EC50 (Oculimacula yallundae [13]) | Ratio EC50 (Oculimacula yallundae [14]) | EC50 (Oculimacula yallundae [15]) [µg/mL] | Ratio EC50 (Oculimacula yallundae [16]) | Ratio EC50 (Oculimacula yallundae [17]) | Ratio EC50 (Oculimacula yallundae [19]) | Ratio EC50 (Oculimacula yallundae [21]) | EC50 (Oculimacula acuformis [22]) [µg/mL] | other results |
| --- | --- | --- | --- | --- | --- | --- | --- | --- | --- | --- | --- | --- | --- | --- | --- | --- | --- | --- | --- | --- | --- |
| Fc1ccc([C@]2(Cn3cncn3)O[C@H]2c2ccccc2Cl)cc1 (relative stereo) [EPOXICONAZOLE] | 30 | 0.3 (≈ 0.91 µM) | 15 | 3.3 | 60 | 2 | 0.3 | 2 | 150 | 5 | 0.15 | 3.3 | 6.7 | 5 | 0.02 (≈ 0.0606 µM) | 2 | 3 | 1 | 2 | 0.3 (≈ 0.91 µM) | EC50 (Oculimacula yallundae [18]): 0.3 µg/mL; Ratio EC50 (Oculimacula yallundae [20]): 3.3 |
| Clc1ccc(C2(Cn3cncn3)CC(Br)CO2)c(Cl)c1 (stereo not given) [BROMUCONAZOLE] | 33 | 0.8 (≈ 2.12 µM) | 27 | 5 | 40 | 1.2 | 1.5 | 8.5 | 83 | 2.5 | 0.2 | 10 | 10 | 0.5 | 0.03 (≈ 0.0796 µM) | 2 | 1 | 2 | 0.6 | 0.8 (≈ 2.12 µM) | EC50 (Oculimacula yallundae [18]): 1.5 µg/mL; Ratio EC50 (Oculimacula yallundae [20]): 0.3 |
| COC(=O)Nc1nc2ccccc2[nH]1 [CARBENDAZIM] |  |  | 1 |  |  |  | 0.04 | 1.3 |  |  | 0.03 |  |  |  | 0.04 (≈ 0.209 µM) |  |  |  |  | 0.04 (≈ 0.209 µM) |  |
| CC1=C(C(=O)Nc2ccccc2)SCCO1 [CARBOXIN] | 1 |  |  |  | 1.2 | 1.2 |  |  | 1.4 | 1.4 |  |  |  |  | 2.5 (≈ 10.6 µM) |  |  |  |  |  |  |
| CC(C1CC1)C(O)(Cn1cncn1)c1ccc(Cl)cc1 (stereo not given) [CYPROCONAZOLE] | 160 | 3 (≈ 10.3 µM) | 60 | 23 | 100 | 0.6 | 12 | 40 | 160 | 1 | 0.3 | 17 | 20 |  | 0.05 (≈ 0.171 µM) | 0.9 | 0.8 | 0.7 | 0.5 | 3 (≈ 10.3 µM) |  |
| Cc1cc(C2CC2)nc(Nc2ccccc2)n1 [CYPRODINIL] | 1 |  | 1 |  | 1 | 1 | 0.06 | 0.12 | 13 | 13 | 0.5 |  |  |  | 0.004 (≈ 0.0178 µM) |  |  |  |  | 0.004 (≈ 0.0178 µM) |  |
| CC1(C(=O)Nc2ccc(O)c(Cl)c2Cl)CCCCC1 [FENHEXAMID] | 1.2 |  | 0.8 | 1.5 | 1.2 | 1 | 0.32 | 0.8 | 33 | 28 | 0.4 | 1.2 | 2.5 |  | 0.06 (≈ 0.199 µM) | 1.7 |  | 0.8 |  | 0.05 (≈ 0.165 µM) |  |
| CC(Cc1ccc(C(C)(C)C)cc1)CN1C[C@@H](C)O[C@@H](C)C1 (stereo not given in full) [FENPROPIMORPH] |  |  | 0.15 |  |  |  | 1.8 | 0.12 |  |  | 15 |  |  |  | 0.4 (≈ 1.32 µM) |  |  |  |  | 0.06 (≈ 0.198 µM) |  |
| C[Si](Cn1cncn1)(c1ccc(F)cc1)c1ccc(F)cc1 [FLUSILAZOLE] |  | 0.2 (≈ 0.634 µM) | 25 |  |  |  | 0.4 | 6.7 |  |  | 0.06 |  |  | 6.2 | 0.008 (≈ 0.0254 µM) |  | 5 |  | 2.5 | 0.2 (≈ 0.634 µM) | EC50 (Oculimacula yallundae [18]): 0.4 µg/mL; Ratio EC50 (Oculimacula yallundae [20]): 5 |

From ChEMBL document CHEMBL3044818, “Fungicide resistance status in French populations of the wheat eyespot fungi Oculimacula acuformis and Oculimacula yallundae” (Pest Manag Sci, 2013)
